Assay results reported in patent publication US10934285B2, “Compounds and compositions for inhibiting the activity of SHP2” (Novartis AG, priority 2016, dated 2021).

biological target: SHP2 (Homo sapiens (Human), UniProt Q06124); test: SHP2 Allosteric Inhibition Assay; assay type: biochemical; conditions: 0.5 nM SHP2 activated with 0.5 μM peptide IRS1_pY1172(dPEG8)pY1222; surrogate substrate DiFMUP; prompt fluorescence
Description: SHP2 Allosteric Inhibition Assay
SHP2 is allosterically activated through binding of bis-tyrosyl-phorphorylated peptides to its Src Homology 2 (SH2) domains. The latter activation step leads to the release of the auto-inhibitory interface of SHP2, which in turn renders the SHP2 protein tyrosine phosphatase (PTP) active and available for substrate recognition and reaction catalysis. The catalytic activity of SHP2 was monitored using the surrogate substrate DiFMUP in a prompt fluorescence assay format.
After 30-60 minutes incubation at 25° C., the surrogate substrate DiFMUP (Invitrogen, cat #D6567) was added to the reaction and incubated at 25° C. for 30 minutes. […] The inhibitor dose response curves were analyzed using normalized IC50 regression curve fitting with control based normalization.

Chain of SHP2 (Q06124 whole entry): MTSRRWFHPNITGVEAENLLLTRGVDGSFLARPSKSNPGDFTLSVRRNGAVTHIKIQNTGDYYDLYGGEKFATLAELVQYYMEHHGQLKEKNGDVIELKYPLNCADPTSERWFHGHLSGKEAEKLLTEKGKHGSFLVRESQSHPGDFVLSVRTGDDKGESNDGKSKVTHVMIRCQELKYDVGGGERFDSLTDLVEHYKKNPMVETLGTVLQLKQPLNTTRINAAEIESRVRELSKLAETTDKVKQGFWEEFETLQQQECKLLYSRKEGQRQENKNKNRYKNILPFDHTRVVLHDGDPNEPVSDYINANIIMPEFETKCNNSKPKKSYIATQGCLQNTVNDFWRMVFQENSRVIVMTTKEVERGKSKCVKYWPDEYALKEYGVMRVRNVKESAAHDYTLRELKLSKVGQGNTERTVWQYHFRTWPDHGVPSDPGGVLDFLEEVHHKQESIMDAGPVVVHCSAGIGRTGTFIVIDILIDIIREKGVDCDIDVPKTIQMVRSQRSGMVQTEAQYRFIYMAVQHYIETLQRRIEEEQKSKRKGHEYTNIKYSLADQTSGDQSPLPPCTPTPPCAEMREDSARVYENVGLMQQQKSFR

Compound | IC50 [nM]
CC1(N)CCN(c2cnc(Sc3cccc(NC(=O)c4c(O)nc5ccccn5c4=O)c3Cl)c(N)n2)CC1 [Example 1, N-(3-((3-Amino-5-(4-amino-4-methylpiperidin-1-yl)pyrazin-2-yl)thio)-2-chlorophenyl)-2-hydroxy-4-oxo-4H-pyrido[1,2-a]pyrimidine-3-carboxamide] | 6
CC1(CN)CCN(c2cnc(Sc3cccc(NC(=O)c4c(O)nc5ccccn5c4=O)c3Cl)c(N)n2)CC1 [Example 2, N-(3-((3-amino-5-(4-(aminomethyl)-4-methylpiperidin-1-yl)pyrazin-2-yl)thio)-2-chlorophenyl)-2-hydroxy-4-oxo-4H-pyrido[1,2-a]pyrimidine-3-carboxamide] | 7
CC1(CN)CCN(c2cnc(Sc3cccc(NC(=O)c4c(O)nc5sccn5c4=O)c3Cl)c(N)n2)CC1 [Example 3, N-(3-((3-amino-5-(4-(aminomethyl)-4-methylpiperidin-1-yl)pyrazin-2-yl)thio)-2-chlorophenyl)-7-hydroxy-5-oxo-5H-thiazolo[3,2-a]pyrimidine-6-carboxamide] | 6
Cn1c(=O)c(C(=O)Nc2cccc(Sc3ncc(N4CCC(C)(CN)CC4)nc3N)c2Cl)c(O)c2c(C3CC3)csc21 [Example 4, N-(3-((3-amino-5-(4-(aminomethyl)-4-methylpiperidin-1-yl)pyrazin-2-yl)thio)-2-chlorophenyl)-3-cyclopropyl-4-hydroxy-7-methyl-6-oxo-6,7-dihydrothieno[2,3-b]pyridine-5-carboxamide] | 1030
CC1(CN)CCN(c2cnc(Sc3cccc(NC(=O)c4c(O)nc5cnccn5c4=O)c3Cl)c(N)n2)CC1 [Example 5, N-(3-((3-amino-5-(4-(aminomethyl)-4-methylpiperidin-1-yl)pyrazin-2-yl)thio)-2-chlorophenyl)-2-hydroxy-4-oxo-4H-pyrazino[1,2-a]pyrimidine-3-carboxamide] | 3
CC1(CN)CCN(c2cnc(Sc3cccc(NC(=O)c4c(O)nc5[nH]ccn5c4=O)c3Cl)c(N)n2)CC1 [Example 6, N-(3-((3-amino-5-(4-(aminomethyl)-4-methylpiperidin-1-yl)pyrazin-2-yl)thio)-2-chloropheny1)-7-hydroxy-5-oxo-1,5-dihydroimidazo[1,2-a]pyrimidine-6-carboxamide] | 5
CC1(CN)CCN(c2cnc(Sc3cccc(NC(=O)c4c(O)nc5n(c4=O)CCCC5)c3Cl)c(N)n2)CC1 [Example 7, N-(3-((3-amino-5-(4-(aminomethyl)-4-methylpiperidin-1-yl)pyrazin-2-yl)thio)-2-chlorophenyl)-2-hydroxy-4-oxo-6,7,8,9-tetrahydro-4H-pyrido[1,2-a]pyrimidine-3-carboxamide] | 6
Cn1c(=O)c(C(=O)Nc2cccc(Sc3ncc(N4CCC(C)(CN)CC4)nc3N)c2Cl)c(O)c2ccccc21 [Example 8, N-(3-((3-amino-5-(4-(aminomethyl)-4-methylpiperidin-1-yl)pyrazin-2-yl)thio)-2-chlorophenyl)-4-hydroxy-1-methyl-2-oxo-1,2-dihydroquinoline-3-carboxamide] | 44
CC1(CN)CCN(c2cnc(Sc3cccc(NC(=O)c4c(O)nc5n(c4=O)CCNC5)c3Cl)c(N)n2)CC1 [Example 9, N-(3-((3-amino-5-(4-(aminomethyl)-4-methylpiperidin-1-yl)pyrazin-2-yl)thio)-2-chlorophenyl)-2-hydroxy-4-oxo-6,7,8,9-tetrahydro-4H-pyrazino[1,2-a]pyrimidine-3-carboxamide] | 7
NCC1(O)CCN(c2cnc(Sc3cccc(NC(=O)c4c(O)nc5ccccn5c4=O)c3Cl)c(N)n2)CC1 [Example 10, N-(3-((3-amino-5-(4-(aminomethyl)-4-hydroxypiperidin-1-yl)pyrazin-2-yl)thio)-2-chlorophenyl)-2-hydroxy-4-oxo-4H-pyrido[1,2-a]pyrimidine-3-carboxamide] | 6
NCC1(O)CCN(c2cnc(Sc3cccc(NC(=O)c4c(O)nc5n(c4=O)CCCC5)c3Cl)c(N)n2)CC1 [Example 11, N-(3-((3-amino-5-(4-(aminomethyl)-4-hydroxypiperidin-1-yl)pyrazin-2-yl)thio)-2-chlorophenyl)-2-hydroxy-4-oxo-6,7,8,9-tetrahydro-4H-pyrido[1,2-a]pyrimidine-3-carboxamide] | 12
N#CC1(CN)CCN(c2cnc(Sc3cccc(NC(=O)c4c(O)nc5n(c4=O)CCCC5)c3Cl)c(N)n2)CC1 [Example 12, N-(3-((3-amino-5-(4-(aminomethyl)-4-cyanopiperidin-1-yl)pyrazin-2-yl)thio)-2-chlorophenyl)-2-hydroxy-4-oxo-6,7,8,9-tetrahydro-4H-pyrido[1,2-a]pyrimidine-3-carboxamide] | 260
Nc1nc(N2CCC(N)(CF)CC2)cnc1Sc1cccc(NC(=O)c2c(O)nc3ccccn3c2=O)c1Cl [Example 13, N-(3-((3-amino-5-(4-amino-4-(fluoromethyl)piperidin-1-yl)pyrazin-2-yl)thio)-2-chlorophenyl)-2-hydroxy-4-oxo-4H-pyrido[1,2-a]pyrimidine-3-carboxamide] | 4.6
Nc1nc(N2CCC(N)(CF)CC2)cnc1Sc1cccc(NC(=O)c2c(O)nc3n(c2=O)CCCC3)c1Cl [Example 14, N-(3-((3-amino-5-(4-amino-4-(fluoromethyl)piperidin-1-yl)pyrazin-2-yl)thio)-2-chlorophenyl)-2-hydroxy-4-oxo-6,7,8,9-tetrahydro-4H-pyrido[1,2-a]pyrimidine-3-carboxamide] | 5.9
NCC1(F)CCN(c2cnc(Sc3cccc(NC(=O)c4c(O)nc5ccccn5c4=O)c3Cl)c(N)n2)CC1 [Example 15, N-(3-((3-amino-5-(4-(aminomethyl)-4-fluoropiperidin-1-yl)pyrazin-2-yl)thio)-2-chlorophenyl)-2-hydroxy-4-oxo-4H-pyrido[1,2-a]pyrimidine-3-carboxamide] | 10
NCC1(F)CCN(c2cnc(Sc3cccc(NC(=O)c4c(O)nc5n(c4=O)CCCC5)c3Cl)c(N)n2)CC1 [Example 16, N-(3-((3-amino-5-(4-(aminomethyl)-4-fluoropiperidin-1-yl)pyrazin-2-yl)thio)-2-chlorophenyl)-2-hydroxy-4-oxo-6,7,8,9-tetrahydro-4H-pyrido[1,2-a]pyrimidine-3-carboxamide] | 8
NCC1CCN(c2cnc(Sc3cccc(NC(=O)c4c(O)nc5ccccn5c4=O)c3Cl)c(N)n2)C1 (stereo not shown) [Example 17] | 13
Nc1nc(N2CCC(C(N)C(F)(F)F)C2)cnc1Sc1cccc(NC(=O)c2c(O)nc3ccccn3c2=O)c1Cl (stereo not shown) [Example 18, N-(3-((3-amino-5-(3-(1-amino-2,2,2-trifluoroethyl)pyrrolidin-1-yl)pyrazin-2-yl)thio)-2-chlorophenyl)-2-hydroxy-4-oxo-4H-pyrido[1,2-a]pyrimidine-3-carboxamide] | 789
Nc1nc(N2CCC(N)(C(F)(F)F)CC2)cnc1Sc1cccc(NC(=O)c2c(O)nc3ccccn3c2=O)c1Cl [Example 19, N-(3-((3-amino-5-(4-amino-4-(trifluoromethyl)piperidin-1-yl)pyrazin-2-yl)thio)-2-chlorophenyl)-2-hydroxy-4-oxo-4H-pyrido[1,2-a]pyrimidine-3-carboxamide] | 2190
Nc1nc(N2CCC(N)(C(F)(F)F)CC2)cnc1Sc1cccc(NC(=O)c2c(O)nc3n(c2=O)CCCC3)c1Cl [Example 20, N-(3-((3-amino-5-(4-amino-4-(trifluoromethyl)piperidin-1-yl)pyrazin-2-yl)thio)-2-chlorophenyl)-2-hydroxy-4-oxo-6,7,8,9-tetrahydro-4H-pyrido[1,2-a]pyrimidine-3-carboxamide] | 5000
Nc1nc(N2CCC3(CC2)CCC(F)(F)[C@H]3N)cnc1Sc1cccc(NC(=O)c2c(O)nc3ccccn3c2=O)c1Cl [Example 22, (S)-N-(3-((3-amino-5-(1-amino-2,2-difluoro-8-azaspiro[4.5]decan-8-yl)pyrazin-2-yl)thio)-2-chlorophenyl)-2-hydroxy-4-oxo-4H-pyrido[1,2-a]pyrimidine-3-carboxamide] | 10
Nc1nc(N2CCC3(CCC[C@H]3N)CC2)cnc1Sc1cccc(NC(=O)c2c(O)nc3ccccn3c2=O)c1Cl [Example 23, (R)-N-(3-((3-amino-5-(1-amino-8-azaspiro[4.5]decan-8-yl)pyrazin-2-yl)thio)-2-chlorophenyl)-2-hydroxy-4-oxo-4H-pyrido[1,2-a]pyrimidine-3-carboxamide] | 5
Nc1nc(N2CCC3(CCC[C@H]3N)CC2)cnc1Sc1cccc(NC(=O)c2c(O)nc3n(c2=O)CCCC3)c1Cl [Example 24, (R)-N-(3-((3-amino-5-(1-amino-8-azaspiro[4.5]decan-8-yl)pyrazin-2-yl)thio)-2-chlorophenyl)-2-hydroxy-4-oxo-6,7,8,9-tetrahydro-4H-pyrido[1,2-a]pyrimidine-3-carboxamide] | 1
Cc1oc(=O)oc1COC(=O)NCC1(C)CCN(c2cnc(Sc3cccc(NC(=O)c4c(O)nc5ccccn5c4=O)c3Cl)c(N)n2)CC1 [Example 25, (5-Methyl-2-oxo-1,3-dioxol-4-yl)methyl ((1-(6-amino-5-((2-chloro-3-(2-hydroxy-4-oxo-4H-pyrido[1,2-a]pyrimidine-3-carboxamido)phenyl)thio)pyrazin-2-yl)-4-methylpiperidin-4-yl)methyl)carbamate] | 80
Nc1nc(N2CCC3(CC2)COC[C@H]3N)cnc1Sc1cccc(NC(=O)c2c(O)nc3n(c2=O)CCCC3)c1Cl [Example 26, (S)—N-(3-((3-Amino-5-(4-amino-2-oxa-8-azaspiro[4.5]decan-8-yl)pyrazin-2-yl)thio)-2-chlorophenyl)-2-hydroxy-4-oxo-6,7,8,9-tetrahydro-4H-pyrido[1,2-a]pyrimidine-3-carboxamide] | 18
